Data: EP4810035A1, “TREATMENT OF MODERATE TO SEVERE PLAQUE PSORIASIS” (Ganzhou Hemay Pharmaceutical, Co., Ltd, priority 2023, dated 2025)

Experiments:
healthy Chinese subjects = experiment: Phase I clinical study, multiple oral doses (Example 6); type: in vivo, human; settings: multiple oral doses of 15 mg BID, 30 mg BID, 60 mg BID, 75 mg BID; 36 healthy Chinese subjects
Procedure: A total of 36 healthy Chinese subjects participated in a phase I clinical study, in which multiple oral doses of 15 mg BID, 30 mg BID, 60 mg BID, 75 mg BID of the compound in Example 2, or a placebo were administered, respectively.

[1] = tested on: patients with moderate to severe chronic plaque psoriasis; experiment: Clinical study on patients (Example 3), 16-week core treatment period, 36-week extension, 4-week follow-up, placebo-controlled; type: in vivo, human
Procedure: This study selected patients with moderate to severe chronic plaque psoriasis as target subjects. Specific criteria were set for disease duration, severity and extent (psoriasis history ≥ 6 months, PASI score ≥ 12, sPGA score ≥ 3, and BSA ≥ 10). […] Primary efficacy endpoint: PASI-75 at week 16. […] Improvement in pruritus symptoms and changes in DLQI scores were also evaluated. The study consisted of a 16-week core treatment period, a 36-week extension treatment period and a 4-week follow-up period. Subjects in the experimental group received 60 mg BID of the compound in Example 2. During the extension treatment period, subjects in the placebo group also received 60 mg BID of the compound in Example 2.

[2] = tested on: subjects with moderate to severe plaque psoriasis; experiment: Phase III study of moderate to severe plaque psoriasis (Example 4), double-blind placebo-controlled core period and open-label extension; settings: for HADS Anxiety Score, Mean / HADS Depression Score, Mean: Experimental group (N=211)
Procedure: Tablets of the compound shown in Example 2 with a strength of 15 mg per tablet.
Control Drug: Placebo tablets matching the investigational drug with a strength of 0 mg per tablet.
• 1) Aged ≥ 18 years at the time of signing the Informed Consent Form (ICF), of any gender. • 2) Clinically diagnosed with stable plaque psoriasis, with a psoriasis history of ≥ 6 months (prior to randomization). • 3) The following requirements are met at screening and baseline: • a. Psoriasis Area and Severity Index (PASI) score ≥ 12; and • b. Static Physician Global Assessment (sPGA) score ≥ 3 (based on an sPGA 0-4 scale); and • c.
The treatment period consisted of two phases: during the double-blind core treatment period, subjects received 60 mg BID of the investigational drug or placebo for 16 weeks (week 0 to week 16); during the open-label extension treatment period, all subjects received 60 mg BID of the investigational drug for 36 weeks (week 16 to week 52).
A total of 305 subjects were enrolled (211 in the experimental group and 94 in the placebo group; including 105 T-SPOT positive subjects without active tuberculosis, 7 subjects with previously confirmed pulmonary tuberculosis, 76 subjects with a history of tuberculosis, and 1 subject with a history of tuberculous pleurisy).
The primary efficacy endpoint was the proportion of subjects achieving PASI 75 at week 16 compared to baseline. The key secondary efficacy endpoint was an sPGA 0/1 with a reduction of ≥2 points from baseline at week 16. Other secondary efficacy endpoints included the proportion of subjects achieving PASI-90, PASI-75, PASI-50, and both PASI-75 and sPGA 0/1 with a ≥ 2-point reduction from baseline at each visit, as well as the rate of change in BSA. Clinical observation and evaluation were conducted over the 16-week core treatment period, the 36-week extension treatment period and the 4-week follow-up period. The Hospital Anxiety and Depression Scale (HADS) was used as an assessment tool to observe and evaluate the anxiety and depression status of subjects at screening, the end of the 16-week core period and 4 weeks after the last dose.

[3] = tested on: Patients with plaque psoriasis; experiment: Multicenter, randomized, double-blind, placebo-parallel controlled dose study in plaque psoriasis (Example 5); type: in vivo, human; settings: for PASI-75 response rate (%): week 16
Procedure: This was a multicenter, randomized, double-blind, placebo-parallel controlled study. A total of 216 subjects were enrolled and randomized in a 1:1:1:1 ratio into the low-dose group (15 mg BID), mid-dose group (30 mg BID), high-dose group (60 mg BID) of the investigational drug, and the placebo group for a 16-week core treatment period. Upon completion of the core treatment, subjects in the low, mid and high-dose groups maintained their original doses for a 36-week extension treatment period. Subjects in the placebo group were switched to the mid-dose group (30 mg BID) for the 36-week extension treatment after completing the core period. All subjects completed a total of 52 weeks of treatment. Subjects who completed 52 weeks of treatment or discontinued prematurely should enter a 4-week follow-up period. […]

[4] = 16-week core treatment period, 60 mg BID, N=211
[5] = by the end of the clinical study

CCOc1cc([C@@H](CS(C)(=O)=O)N2C(=O)c3csc(NC(C)=O)c3C2=O)ccc1OC [Example 2, (S)-N-[5-[1-(3-ethoxy-4-methoxyphenyl)-2-(methylsulfonyl)ethyl]-4,6-dioxo-5,6-dihydro-5H-thieno[3,4-c]pyrrol-1-yl]acetamide]
safety and tolerability (healthy Chinese subjects): good safety and tolerability
deaths ([1]; 60 mg BID): No deaths occurred
drug-related serious adverse events ([1]; 60 mg BID): No drug-related serious adverse events occurred
severity of adverse events leading to discontinuation ([1]; 60 mg BID): all Grade 1 or Grade 2
severity of drug-related adverse events ([1]; 60 mg BID): primarily Grade 1 or Grade 2
Secondary Efficacy Indicators, difference compared to the placebo group ([1]; 60 mg BID, P<0.0001): statistically significant differences
DLQI (LS mean) [1, 4]: 5.38 points
PASI-90 [1, 4]: 32.5%
tuberculosis reactivation ([1]; T-SPOT positive but non-active TB subjects, by the end of the clinical study): no tuberculosis reactivation occurred
occurrences of depression or suicidal ideation ([1]; by the end of the clinical study, any subjects): no occurrences of depression or suicidal ideation were observed
proportion of subjects achieving PASI-75 ([1]; week 16, 60 mg BID, N=211): 53.6%
rate difference between the two groups (PASI-75) ([1]; week 16, Example 2 group vs placebo group): 37.6%
Chest imaging examinations ([1]; week 16 visit, T-SPOT positive but non-active TB subjects): no abnormalities
death events ([2]; 60 mg BID): No death events occurred
incidence of adverse reaction: diarrhea ([2]; 60 mg BID): 11.4%
incidence of adverse reaction: dizziness ([2]; 60 mg BID): 9.0%
incidence of adverse reaction: fatigue ([2]; 60 mg BID): 8.5%
incidence of adverse reaction: headache ([2]; 60 mg BID): 8.1%
incidence of adverse reaction: hypertriglyceridemia ([2]; 60 mg BID): 5.7%
incidence of adverse reaction: increased stool frequency ([2]; 60 mg BID): 10.4%
incidence of adverse reaction: nausea ([2]; 60 mg BID): 23.7%
incidence of adverse reaction: vomiting ([2]; 60 mg BID): 10.0%
severity of adverse events leading to discontinuation ([2]; 60 mg BID): Grade 1 or Grade 2
severity of the primary adverse reactions ([2]; 60 mg BID): Grade 1 or Grade 2
time of occurrence of gastrointestinal reactions and nervous system abnormalities ([2]; 60 mg BID): mostly occurred within the first two weeks of administration
tuberculosis activation (reactivation) ([2]; 105 T-SPOT positive subjects without active tuberculosis, 7 with previously confirmed pulmonary tuberculosis, 76 with history of tuberculosis, 1 with history of tuberculous pleurisy, by the end of the study): no instances of tuberculosis activation (reactivation) were observed
HADS Anxiety Score, Mean ([2]; Week 16, 60 mg BID): 2.3
HADS Depression Score, Mean ([2]; Week 16, 60 mg BID): 3.0
HADS Anxiety Score, Mean ([2]; Week 56, 60 mg BID): 3.1
HADS Depression Score, Mean ([2]; Week 56, 60 mg BID): 3.8
chest X-ray or CT examinations ([2]; any of the subjects): No clinical abnormalities related to tuberculosis were found
adverse events of depression or anxiety related to the investigational drug [2, 5]: No adverse events of depression or anxiety related to the investigational drug were observed
difference between the experimental group and the placebo group in mean HADS anxiety scores and mean HADS depression scores [2, 5]: no statistically significant differences (P>0.05)
occurrences of depression or suicidal ideation [2, 5]: no occurrences of depression or suicidal ideation
drug-related serious adverse events ([2]; core treatment period, 60 mg BID): No drug-related serious adverse events occurred
PASI-50 efficacy endpoint in subjects who had failed prior adalimumab treatment ([2]; two subjects, 60 mg BID): both achieved the PASI-50 efficacy endpoint
BSA rate of change (%) ([2]; week 16, 60 mg BID, N=211): 65.0%
Both PASI-75 and sPGA 0/1 and reduction of ≥2 points from baseline (%) ([2]; week 16, 60 mg BID, N=211): 30.3%
DLQI change from baseline, (mean) ([2]; week 16, 60 mg BID, N=211): 5.38 points
PASI-50 (%) ([2]; week 16, 60 mg BID, N=211): 82.7%
PASI-75 (%) ([2]; week 16, 60 mg BID, N=211): 53.6%
PASI-90 (%) ([2]; week 16, 60 mg BID, N=211): 32.5%
sPGA score of 0/1 and reduction of ≥2 points from baseline (%) ([2]; week 16, 60 mg BID, N=211): 31.3%
DLQI score change from baseline, Mean ([3]; 15mg BID Group (N=54)): 4.9
PASI-50 response rate (%) ([3]; 15mg BID Group (N=54)): 42.59%
PASI-75 & sPGA 0/1 score (%) ([3]; 15mg BID Group (N=54)): 12.96%
PASI-90 response rate (%) ([3]; 15mg BID Group (N=54)): 16.67%
sPGA 0/1 score (%) ([3]; 15mg BID Group (N=54)): 14.81%
DLQI score change from baseline, Mean ([3]; 30mg BID Group (N=54)): 6.1
PASI-50 response rate (%) ([3]; 30mg BID Group (N=54)): 51.85%
PASI-75 & sPGA 0/1 score (%) ([3]; 30mg BID Group (N=54)): 14.81%
PASI-90 response rate (%) ([3]; 30mg BID Group (N=54)): 11.11%
sPGA 0/1 score (%) ([3]; 30mg BID Group (N=54)): 14.81%
DLQI score change from baseline, Mean ([3]; 60mg BID Group (N=54)): 7.1
PASI-50 response rate (%) ([3]; 60mg BID Group (N=54)): 62.96%
PASI-75 & sPGA 0/1 score (%) ([3]; 60mg BID Group (N=54)): 24.07%
PASI-90 response rate (%) ([3]; 60mg BID Group (N=54)): 20.37%
sPGA 0/1 score (%) ([3]; 60mg BID Group (N=54)): 24.07%
Population pharmacokinetics and exposure-response analysis ([3]; 15, 30, 60 mg BID): the efficacy response rate increased with increasing doses
death events ([3]; 15, 30, 60 mg BID): No death events occurred
adverse events of depression or anxiety [3, 5]: no adverse events of depression or anxiety were reported
occurrences of depression or suicidal ideation [3, 5]: no occurrences of depression or suicidal ideation were observed
drug-related serious adverse events ([3]; core treatment period): No drug-related serious adverse events occurred
Adverse events with an incidence of ≥10% ([3]; double-blind core treatment period (weeks 1 to 16)): diarrhea, nausea, headache, and fatigue
drug-related adverse events with an incidence of ≥5% in any of the low, medium or high-dose groups ([3]; double-blind core treatment period (weeks 1 to 16), 15, 30, 60 mg BID): increased triglycerides, increased lipids, diarrhea, nausea, abdominal discomfort, hyperlipidemia, headache, and fatigue
severity of adverse events leading to discontinuation ([3]; in vivo): Grade 1 or Grade 2
PASI-75 and PASI-90 efficacy endpoints in a subject who had failed adalimumab therapy ([3]; one subject): also achieved the PASI-75 and PASI-90 efficacy endpoints
PASI-50 efficacy endpoint in subjects who had failed prior biologic therapy ([3]; one subject failed adalimumab, one failed secukinumab, one failed TNF-α monoclonal antibody therapy): all achieved the PASI-50 efficacy endpoint
PASI-75 response rate (%) ([3]; 15mg BID Group (N=54)): 18.52%
PASI-75 response rate (%) ([3]; 30mg BID Group (N=54)): 25.93%
PASI-75 response rate (%) ([3]; 60mg BID Group (N=54)): 46.30%
